US20220323591A1, “HEPARIN NANO DRUG CARRIER SYSTEM LOADED WITH AMINO ANTI-TUMOR DRUG AND PREPARATION METHOD THEREOF” (NANJING KING-FRIEND BIOCHEMICAL PHARMACEUTICAL CO., LTD., priority 2020, published 2022)

Tests used:
[1] = tested on: 4T1 breast cancer xenograft tumors; test: In vivo experiment of breast cancer cells, daunorubicin nano drug carrier systems; conditions: 3 mg/kg via caudal veins, once every three days, 4 times; 4T1 in BALB/c mice
Method: Anti-tumor effects of nanoparticles in vivo are studied in BALB/c mice with 4T1 breast cancer xenograft tumors. Free daunorubicin (Group I), daunorubicin-Py-PEG-HP (Group II) and daunorubicin-Mal-PEG-HP (Group III) are administered via caudal veins at a dose of 3 mg/kg, for once every three days and in total 4 times, with the free daunorubicin group (Group I) as the control.

[2] = tested on: acute promyelocytic leukemia (HL-60) cells; test: Uptake experiment of leukemia cells; format: cell-based; conditions: 1×10^5/ml
Method: An uptake experiment of free daunorubicin, daunorubicin-Py-PEG-HP and daunorubicin-Mal-PEG-HP with acute promyelocytic leukemia (HL-60) cells: the concentration of HL-60 cells is adjusted to 1×10^5/ml, and the cells are added into a 24 -well plate with 1 ml per well; a certain concentration of pure DNR solution and a certain concentration of DNR-NP suspension are added into a culture plate, and cultured for a certain time, then the cells are taken out at five time points (30 min, 60 min, 90 min, 120 min and 180 min) respectively; centrifugation is performed at 4° C. under 1000 rpm for 5 min, and the cells are collected, and then washed twice using a RPM11640 medium added with serum; the cells are lysed with 1.5 ml of 50 μg/ml protease K and a 1% SDS solution, with continuous shaking performed at 37° C. for 12 hours, and a cell extract is collected; and the drug content in the cells is calculated by a fluorescence intensity standard curve.

[3] = tested on: xenotransplantation 4T1 tumor model; test: In vivo experiment of breast cancer cells, lenalidomide and lapatinib nano drug carrier systems; set-up: species or system BALB/c mice; conditions: 4 mg/kg via caudal veins, once every two days, 5 times; normal saline as control
Method: The anti-tumor effect of nanoparticles in vivo is based on investigation of a xenotransplantation 4T1 tumor model established in the BALB/c mice. Each of groups represents normal saline (Group I), free lenalidomide (Group II), lenalidomide-Py-PEG-HP (Group III), […] lenalidomide-Mal-PEG-HP (Group IV), free lapatinib (Group V), lapatinib-Py-PEG-HP (Group VI) and lapatinib-Mal-PEG-HP (Group VII) respectively, wherein they are administrated via caudal veins at a dosage of 4 mg/kg, once every two days, with a total of 5 times. As shown in the diagram below, the tumor development is detected on the second day after administration.

[4] = tested on: 5T33 multiple myeloma cells; test: In vivo experiment of multiple myeloma; set-up: species or system mice
Method: Thirty 6-week-old mice are divided into three groups, which are administrated with free lenalidomide (Group I), lenalidomide-Py-PEG-HP (Group II) and lenalidomide-Mal-PEG-HP (Group III) respectively. Male and female animals in each group are halved, and there is no statistically significant difference in body weight among animals in each group. The dosage of free lenalidomide group is 0.1 ml/kg body weight/day, and the dosage of lenalidomide-Py-PEG-HP group and lenalidomide-Mal-PEG-HP group is 20 mg/kg (body weight/day).
One week after injection of 1,000,000 5T33 multiple myeloma cells into the tail veins of mice, drugs are administered subcutaneously according to the above scheme, for three times a week. During the administration period, the animals are weighed every day, and the dosage on that day is determined according to the weight, and the animals are continuously administered until death of the mice. The venous blood of mice is collected and stored every week, and the time of death of mice is recorded.
According to the statistical test, there is significant difference in the survival time of mice when free lenalidomide group is compared with heparin nano drug carrier system (P<0.05), as shown in Table 1. There is significant difference in the tumor load in serum of mice when the free lenalidomide group is compared with heparin nano drug carrier system (P<0.05), as shown in Table 2.

| SMILES | anti-tumor effect (tumor volume) [1] | uptake efficiency [2] [%] | anti-tumor effect (tumor development) [3] | Average survival days of mice after drug injection ([4]; 5T33 mice, subcutaneous, three times a week, free lenalidomide 0.1 ml/kg body weight/day, conjugates 20 mg/kg) [days] | Average tumor load in serum of mice after drug injection ([4]; 1 day, mouse LGg2b concentration) [µg/mL] | Average tumor load in serum of mice after drug injection ([4]; 8 days) [µg/mL] | Average tumor load in serum of mice after drug injection ([4]; 15 days) [µg/mL] | Average tumor load in serum of mice after drug injection ([4]; 22 days) [µg/mL] | Average tumor load in serum of mice after drug injection ([4]; 29 days) [µg/mL] |
| --- | --- | --- | --- | --- | --- | --- | --- | --- | --- |
| COc1cccc2c1C(=O)c1c(O)c3c(c(O)c1C2=O)C[C@@](O)(C(C)=O)C[C@@H]3O[C@H]1C[C@H](N)[C@H](O)[C@H](C)O1 [free daunorubicin, daunorubicin] | insignificant anti-tumor activity | 16 |  |  |  |  |  |  |  |
| CS(=O)(=O)CCNCc1ccc(-c2ccc3ncnc(Nc4ccc(OCc5cccc(F)c5)c(Cl)c4)c3c2)o1 [free lapatinib, lapatinib] |  |  | have the anti-tumor activity |  |  |  |  |  |  |
| Nc1cccc2c1CN(C1CCC(=O)NC1=O)C2=O (stereo not shown) [free lenalidomide, lenalidomide] |  |  | have the anti-tumor activity | 35 | 125.3 | 206.5 | 335.2 | 611.4 | 864.1 |
